Measured values as given in patent publication US9849212B2, “Implants for inducing soft and hard tissue integration” (NUMAT BIOMEDICAL S.L., priority 2013, dated 2017).

Key:
Format in all cases: physicochemical
[1] = Flavonoid release profile by UV-Vis spectroscopy, simulating hUC-MSCs culture media changes; details: water pH 7.5, 37° C.
Procedure: (§1) The flavonoid release profile from coated surfaces in water media, simulating physiologic conditions (pH 7.5, 37° C.) was measured by UV-Vis spectroscopy. Implants were placed in a 96 well plate and 200 μl of water at pH 7.5 were added to each well. […] Each time, a 150 μl aliquot was withdrawn and the absorbance (λTaxifolin=290 nm, λQuercitrin=350 nm) was measured in a 96 well Elisa plate using a Biotek UV-vis plate reader spectrophotometer. The concentration of flavonoid was calculated from interpolation of data in flavonoid standard calibration curves. Two replicates were measured for each sample. Passivated Ti substrates were used as blank samples for drop casted implants. Silanized Ti substrates were used as blank for covalently linked samples.

[2] = Flavonoid release profile by UV-Vis spectroscopy, simulating HGF culture media changes; details: water pH 7.5, 37° C.
Procedure: as §1

[3] = Biomolecule release by UV-vis spectrometry after 24 h incubation in water; details: covalent linking via APTES, water pH 7.5, 37° C.
Procedure: The biomolecule release from functionalized implants after 24 h incubation in water at pH 7.5 and 37° C. was determined by UV-Vis spectroscopy. Implants were placed in a 96 well plate and 200 μl of water at pH 7.5 were added to each well. Samples were incubated at 37° C. during 24 h. Then, a 150 μl aliquot was withdrawn and the absorbance (λmax taxifolin=290 nm, λmax quercitrin=350 nm) was measured using a Biotek UV-vis plate reader spectrophotometer. Two sample replicates were measured.

[4] = Schiff base, not reduced (experiment FL14)

total amount released after 14 days ([1]; Schiff base, not reduced (experiment FL17)): 2.6 ± 0.2 nmol
total amount released to media ([1]; drop casted substrates (experiment FL16), initial 20 nmol/disk taxifolin, 50 nmol/disk quercitrin, up to 14 days): 19.7 ± 0.7 nmol
cumulative release at day one [2, 4]: 12.4 ± 4.0 nmol
released amount from 1 to 14 days [2, 4]: not significant
flavonoid released to the media after 1 h of incubation ([2]; covalently linked by Schiff base formation, not reduced (experiment FL14)): 7.9 ± 2.7 nmol
completeness of release at day 1 ([2]; drop casted substrates (experiment FL13), 6 nmol/disk taxifolin): almost complete
flavonoid released to the media after 1 h of incubation ([2]; drop casted substrates (experiment FL13), initial 6 nmol/disk taxifolin, 100 nmol/disk quercitrin): ~3.2 ± 0.4 nmol
C μM, 24 h (release of flavonoid to water media) ([3]; Ti pretreat. UV, reduction step No (Schiff base)): 5.06 ± 0.59 µM
C μM, 24 h (release of flavonoid to water media) ([3]; Ti pretreat. UV, reduction step Yes (reduced Schiff base)): No det.
C μM, 24 h (release of flavonoid to water media) ([3]; Ti pretreat. passivation, reduction step No (Schiff base)): 10.22 ± 1.88 µM
C μM, 24 h (release of flavonoid to water media) ([3]; Ti pretreat. passivation, reduction step Yes (reduced Schiff base)): No det.
SMILES: O=C1c2c(O)cc(O)cc2O[C@H](c2ccc(O)c(O)c2)[C@H]1O [TX, taxifolin]
flavonoid detected in the media ([1]; reduced Schiff base surfaces (experiment FL18), up to 14 days): No taxifolin neither quercitrin were detected
flavonoid detected in the media ([2]; reduced Schiff base surfaces (experiment FL15), up to 14 days): No taxifolin neither quercitrin were detected
